Experimental findings from patent US20030208067A1, “Inhibitors of protein kinase for the treatment of disease” (priority 2001, published 2003) are described below.

The target in assay [1] is CDK5 complexed with p25 (Homo sapiens, UniProt Q00535). As to the kind of experiment: Cyclin dependent kinase activity assay (33P peptide phosphorylation). The assay is classed as biochemical. The settings on record: 0.1 mM ATP, read-out: CDK 5 Activity*. As for the experimental part: (§1) The assay of cyclin dependent kinase activity was determined by monitoring the phosphorylation of a synthetic peptide, PKTPKKAKKLRRR. The assay mixture contained 0.1 mM cold ATP, ^33P-γ-ATP (2000-4000 cpm/μL), 0.1 mM peptide, 1 mM DDt, and 10 mM MgCl2 in 100 mM HEPES buffer pH 7.4. The assay mixture, along with inhibitor and CDK enzyme (0.3-0.4 U/mL; either CDK5 complexed with p25, CDK2 complexed with complexed with cyclin A), was mixed together in a microtiter plate in a final volume of 40 μL, sealed and incubated for 2 hours at 30° C. Following incubation, a 15 μL aliquot was added to a Whatman P81 filtration plate containing 100 μL 0.5% phosphoric acid. This mixture was allowed to stand for 5 minutes prior to filtration on a vacuum manifold. The filter plate was washed with 5 successive additions of 300 μL 0.5% phosphoric acid. The filtration plate was air dried for 10 minutes before sealing the bottom. After addition of scintillation fluid to the sealed plate, phosphorylated peptide was quantified in a scintillation counter.

In assay [2] the target is KDR (Homo sapiens, UniProt P35968). Kind of assay: Enzyme assay for EGFR2 (KDR). The assay is classed as biochemical. The note with it: 50 nM KDR; 500 μM ATP. As for the experimental part: Enzyme assays for IC50 determinations were performed in 96-well titer plates, in a total reaction volume of 50 μL. Each reaction contained 1.5 μL of appropriate dilutions of inhibitor, 50 mM Hepes, pH 7.4, 1 mM DTT, 10 mM magnesium chloride, 2 mM phospho-poly(E4Y) (Sigma Chemical Company), 500 μM unlabeled ATP, 0.0025 μM [^33P]ATP (Amersham Pharmacia Biotech), and 50 nM KDR. All components except KDR were added to the wells, and the reaction was started by the addition of the enzyme. The reactions were mixed and incubated at room temperature for 1 hr, after which the reactions were quenched by the addition of 50 μL of 8% phosphoric acid. At this point, 90 μL aliquots of the samples were applied to positively charged DEAE 96-well filter plates (Millipore Corporation MADENOB10). The plates were incubated for 30 min at room temperature. The samples were aspirated and the wells were washed 3 times with 200 μL of 0.5% phosphoric acid. To each well, 50 μL of scintillation cocktail was added and counted for 60 sec in a TopCount microplate scintillation counter (Packard Instrument Company). The concentration of a compound that inhibited the activity of KDR by 50% (IC50) was determined based its inhibition curve.

The subject of assay [3] is panel of protein kinases. As to the kind of experiment: Specificity studies, summary in words. The assay is classed as biochemical. The settings on record: against a panel of protein kinases. As for the experimental part:
The assays of kinases were determined by monitoring the phosphorylation of appropriate substrates. The assay mixture contained 0.1 mM cold ATP ^33P-γ-ATP (2000-4000 cpm/μL), 0.1 mM substrate, 1 mM DTT, and 10 mM MgCl2 in 100 mM HEPES buffer pH 7.4. The assay mixture, along with inhibitor and kinase enzyme (0.3-0.4 U/mL), was mixed together in a microtiter 96-well plate in a final volume of 40 μL, sealed and incbated for 1 hour at 30° C. Following incubation, a 15 μL aliquot was added to a Whatman P81 filtration plate containing 100 μL 0.5% phosphoric acid. This mixture was allowed to stand for 5 minutes prior to filtration on a vacuum manifold. The filter plate was washed with 5 successive additions of 300 μL 0.5% phosporic acid. The filtration plate was air dried for 10 minutes before sealing the bottom. After addition of scintillation fluid to the sealed plate, phosphorylated substrate was quantified in a scintillation counter.

The test system of assay [4] is A549/ATCC. Kind of assay: In vitro tumor cell efficacy test (SRB cell viability). The note with it: Homo sapiens, Non-Small Cell Lung Cancer, 72 hours. The format is cell-based.
The target of assay [5] is CDK2 complexed with cyclin A (Homo sapiens, UniProt P24941). As to the kind of experiment: Cyclin dependent kinase activity assay (33P peptide phosphorylation). The assay is classed as biochemical. The note with it: 0.1 mM ATP, read-out: CDK 2 Activity*. As for the experimental part: as §1

Sequence of CDK5 complexed with p25 (Q00535 whole entry): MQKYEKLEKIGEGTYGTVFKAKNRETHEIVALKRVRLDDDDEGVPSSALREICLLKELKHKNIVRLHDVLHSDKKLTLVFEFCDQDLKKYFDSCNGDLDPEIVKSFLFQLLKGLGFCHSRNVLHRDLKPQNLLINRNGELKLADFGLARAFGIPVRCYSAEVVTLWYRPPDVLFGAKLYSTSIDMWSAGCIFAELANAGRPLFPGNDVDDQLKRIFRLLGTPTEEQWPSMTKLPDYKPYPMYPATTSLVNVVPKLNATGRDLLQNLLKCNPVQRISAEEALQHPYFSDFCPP
Sequence of CDK5 complexed with p25 (Q15078 99-307 partner limits assumed): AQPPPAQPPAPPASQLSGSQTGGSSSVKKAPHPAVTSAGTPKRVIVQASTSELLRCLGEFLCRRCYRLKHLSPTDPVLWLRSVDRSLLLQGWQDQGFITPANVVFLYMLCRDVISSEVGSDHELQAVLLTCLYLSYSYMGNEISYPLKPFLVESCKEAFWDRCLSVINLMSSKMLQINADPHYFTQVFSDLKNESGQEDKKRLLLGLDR
Sequence of KDR (P35968 20-1356, species assumed): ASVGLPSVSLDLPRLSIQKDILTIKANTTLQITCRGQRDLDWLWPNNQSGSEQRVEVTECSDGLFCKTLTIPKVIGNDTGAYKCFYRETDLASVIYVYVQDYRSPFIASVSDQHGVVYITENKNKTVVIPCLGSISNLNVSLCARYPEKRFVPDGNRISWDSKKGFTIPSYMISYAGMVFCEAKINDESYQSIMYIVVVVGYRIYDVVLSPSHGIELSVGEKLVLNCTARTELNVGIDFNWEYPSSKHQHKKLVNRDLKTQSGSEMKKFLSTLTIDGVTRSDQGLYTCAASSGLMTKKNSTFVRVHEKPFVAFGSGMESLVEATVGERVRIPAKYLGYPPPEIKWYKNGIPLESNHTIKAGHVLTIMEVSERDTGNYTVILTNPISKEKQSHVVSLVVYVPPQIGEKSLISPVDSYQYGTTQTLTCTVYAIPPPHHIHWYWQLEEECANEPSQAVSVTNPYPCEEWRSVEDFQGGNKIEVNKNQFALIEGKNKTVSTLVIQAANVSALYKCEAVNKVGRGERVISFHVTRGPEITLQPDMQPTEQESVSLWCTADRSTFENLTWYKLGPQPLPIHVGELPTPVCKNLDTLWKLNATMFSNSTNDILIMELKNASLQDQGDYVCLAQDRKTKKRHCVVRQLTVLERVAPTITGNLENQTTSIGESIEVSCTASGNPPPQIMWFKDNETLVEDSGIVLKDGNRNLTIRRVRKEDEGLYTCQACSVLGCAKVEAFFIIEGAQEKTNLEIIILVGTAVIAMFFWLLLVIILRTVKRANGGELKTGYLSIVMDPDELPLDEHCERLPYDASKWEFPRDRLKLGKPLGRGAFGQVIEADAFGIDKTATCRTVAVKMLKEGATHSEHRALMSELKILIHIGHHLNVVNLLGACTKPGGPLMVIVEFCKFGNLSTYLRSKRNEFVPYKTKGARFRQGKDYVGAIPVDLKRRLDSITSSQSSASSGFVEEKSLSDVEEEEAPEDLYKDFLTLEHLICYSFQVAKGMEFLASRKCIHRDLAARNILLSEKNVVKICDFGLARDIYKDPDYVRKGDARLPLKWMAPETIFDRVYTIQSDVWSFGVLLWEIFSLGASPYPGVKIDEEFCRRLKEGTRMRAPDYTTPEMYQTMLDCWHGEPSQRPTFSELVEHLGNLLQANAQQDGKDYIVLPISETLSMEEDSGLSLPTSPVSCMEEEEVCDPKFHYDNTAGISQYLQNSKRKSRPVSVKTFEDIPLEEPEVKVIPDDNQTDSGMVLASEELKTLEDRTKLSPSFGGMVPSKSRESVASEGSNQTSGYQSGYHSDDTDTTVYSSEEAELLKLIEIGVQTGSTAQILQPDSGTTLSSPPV

With `Nc1nc(-c2cc(-c3ccc(O)cc3)ccc2O)cc(N2CCCC2CO)n1` (stereo in doubt) [Example 79, 3-[2-Amino-6-(2R-hydroxymethyl-pyrrolidin-1-yl)-pyrimidin-4-yl]-biphenyl-4,4′-diol], the IC50 in assay [1] was below 0.5 µM; in assay [2], 1 to 20 µM.
For the compound `Nc1nccc(-c2cc(-c3ccc(O)cc3)ccc2O)n1` [3-(2-Amino-pyrimidin-4-yl)-biphenyl-4,4′-diol], the “specificity for CDK5 and CDK2” value in assay [3] is “highly specific”. In assay [4], the median lethal concentration (LC50) (as a rule, the concentration lethal to half of the exposed cells or organisms) was above 100 µM.
As for `NC(=S)N/N=C/c1cc(-c2ccc(CO)cc2)ccc1O` [Example 10, 5-(4-Hydroxymethylphenyl)salicylaldehyde Thiosemicarbazone], the IC50 was in the range of 2 to 5 µM in assay [5] and 0.5 to 2 µM in assay [1].
For the compound `NC(=O)/C=C/c1ccc(O)c(/C=N/NC(N)=S)c1` [Example 39, 3-Formyl-4-hydroxycinnamide, Thiosemicarbazone], the figures for the IC50 in assay [5] and in assay [1] were 0.5 to 2 µM and above 5 µM, respectively.
